For orientation: IC50 means the concentration at which inhibition is half-maximal.

Calls of active or inactive are those of the source. The calls are words filed in the database; no cut-off is given here.

Test [1] in a line: Inhibition of human full length recombinant CDK9/cyclin T1 using KTFCGTPEYLAPE as substrate incubated for 40 mins in presence of [gamma-33ATP] by radiometric scintillation counting analysis.
Test [2] deals with HepG2. Description: Induction of cell cycle arrest in human HepG2 cells assessed as accumulation at G0/G1 phase at 16 uM incubated for 24 hrs by propidium iodide staining based flow cytometry (reference value: 38.34%). The format is functional. A general note: Flow cytometry measures light scatter and fluorescence of single cells or particles in a stream.
Test [3] relates to HepG2. Nature of the test: Induction of cell cycle arrest in human HepG2 cells assessed as accumulation at G0/G1 phase at 0.5 to 8 uM incubated for 24 hrs by propidium iodide staining based flow cytometry. Particulars: dose 0.5-8 µM. The format is functional.
Test [4] has as its target T1, Mitogen-activated protein kinase kinase kinase 5 (Homo sapiens, UniProt Q99683).
T1 sequence (Q99683 whole entry): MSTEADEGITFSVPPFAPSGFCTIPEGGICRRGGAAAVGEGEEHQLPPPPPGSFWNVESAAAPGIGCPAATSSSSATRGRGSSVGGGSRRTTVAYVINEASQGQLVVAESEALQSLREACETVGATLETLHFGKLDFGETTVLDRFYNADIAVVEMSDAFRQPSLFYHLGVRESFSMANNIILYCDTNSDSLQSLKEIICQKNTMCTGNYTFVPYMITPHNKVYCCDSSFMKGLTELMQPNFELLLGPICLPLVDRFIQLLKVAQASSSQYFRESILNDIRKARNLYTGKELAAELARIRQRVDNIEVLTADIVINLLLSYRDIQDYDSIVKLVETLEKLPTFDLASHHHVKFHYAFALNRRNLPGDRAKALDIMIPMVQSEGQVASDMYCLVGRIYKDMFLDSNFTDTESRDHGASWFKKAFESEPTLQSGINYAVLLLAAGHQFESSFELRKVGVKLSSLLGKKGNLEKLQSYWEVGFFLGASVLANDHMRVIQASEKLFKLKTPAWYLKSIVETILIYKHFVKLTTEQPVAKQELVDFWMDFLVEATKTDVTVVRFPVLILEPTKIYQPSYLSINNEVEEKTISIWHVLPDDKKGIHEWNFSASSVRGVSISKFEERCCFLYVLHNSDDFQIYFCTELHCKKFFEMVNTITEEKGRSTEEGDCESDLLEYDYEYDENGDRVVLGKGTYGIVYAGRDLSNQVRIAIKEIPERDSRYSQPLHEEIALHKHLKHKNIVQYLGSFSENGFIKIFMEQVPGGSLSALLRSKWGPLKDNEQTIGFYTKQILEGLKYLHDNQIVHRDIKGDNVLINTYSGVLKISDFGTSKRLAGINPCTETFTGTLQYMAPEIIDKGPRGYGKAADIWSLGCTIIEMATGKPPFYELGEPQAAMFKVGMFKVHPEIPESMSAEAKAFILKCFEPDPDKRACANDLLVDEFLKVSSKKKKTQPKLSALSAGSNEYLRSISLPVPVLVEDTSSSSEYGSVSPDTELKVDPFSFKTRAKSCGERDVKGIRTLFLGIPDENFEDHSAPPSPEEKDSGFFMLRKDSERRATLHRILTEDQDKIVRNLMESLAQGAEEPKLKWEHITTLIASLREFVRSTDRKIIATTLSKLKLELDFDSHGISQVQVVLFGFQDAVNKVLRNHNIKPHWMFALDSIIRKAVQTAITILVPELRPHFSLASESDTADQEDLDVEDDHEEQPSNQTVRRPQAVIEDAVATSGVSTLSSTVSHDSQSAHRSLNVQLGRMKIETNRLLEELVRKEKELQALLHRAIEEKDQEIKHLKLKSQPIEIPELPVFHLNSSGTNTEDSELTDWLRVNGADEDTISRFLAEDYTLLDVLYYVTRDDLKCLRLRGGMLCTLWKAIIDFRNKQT
Description: Inhibition of ASK1 (unknown origin).

Test [5] has as its target T2, Mitogen-activated protein kinase kinase kinase 6 (Homo sapiens, UniProt O95382).
T2 sequence (O95382 whole entry): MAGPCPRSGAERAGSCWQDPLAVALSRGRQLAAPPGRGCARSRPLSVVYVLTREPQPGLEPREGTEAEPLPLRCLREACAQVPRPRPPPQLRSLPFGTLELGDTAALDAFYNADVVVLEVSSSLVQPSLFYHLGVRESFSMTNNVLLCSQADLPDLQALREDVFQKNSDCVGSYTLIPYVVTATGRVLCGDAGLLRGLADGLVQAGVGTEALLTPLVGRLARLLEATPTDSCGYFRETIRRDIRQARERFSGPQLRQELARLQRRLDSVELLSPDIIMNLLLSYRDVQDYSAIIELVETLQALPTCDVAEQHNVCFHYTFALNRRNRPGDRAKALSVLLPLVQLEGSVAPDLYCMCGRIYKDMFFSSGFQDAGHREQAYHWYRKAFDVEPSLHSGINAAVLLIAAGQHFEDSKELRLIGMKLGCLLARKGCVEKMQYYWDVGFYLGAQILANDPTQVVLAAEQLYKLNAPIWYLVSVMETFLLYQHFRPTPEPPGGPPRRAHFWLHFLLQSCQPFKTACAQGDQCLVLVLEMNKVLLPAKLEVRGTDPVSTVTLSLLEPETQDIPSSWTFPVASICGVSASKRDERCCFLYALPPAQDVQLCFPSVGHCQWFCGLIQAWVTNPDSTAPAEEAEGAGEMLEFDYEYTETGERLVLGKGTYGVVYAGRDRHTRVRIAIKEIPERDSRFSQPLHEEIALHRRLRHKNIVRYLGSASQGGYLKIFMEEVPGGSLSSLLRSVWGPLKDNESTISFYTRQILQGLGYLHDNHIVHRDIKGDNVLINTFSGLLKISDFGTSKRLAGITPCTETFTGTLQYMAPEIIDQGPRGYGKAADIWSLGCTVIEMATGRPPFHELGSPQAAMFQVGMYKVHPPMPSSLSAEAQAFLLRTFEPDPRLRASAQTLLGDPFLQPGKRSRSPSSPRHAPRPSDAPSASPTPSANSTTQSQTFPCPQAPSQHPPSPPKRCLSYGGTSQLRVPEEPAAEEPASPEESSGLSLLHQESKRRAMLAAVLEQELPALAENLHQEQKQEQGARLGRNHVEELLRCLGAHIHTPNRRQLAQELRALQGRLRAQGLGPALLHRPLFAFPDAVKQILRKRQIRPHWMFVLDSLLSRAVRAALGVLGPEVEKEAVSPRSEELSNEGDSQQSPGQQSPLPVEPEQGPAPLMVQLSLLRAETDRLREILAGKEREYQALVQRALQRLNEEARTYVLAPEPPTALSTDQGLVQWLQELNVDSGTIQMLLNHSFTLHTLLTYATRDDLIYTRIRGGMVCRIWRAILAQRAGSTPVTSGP
Nature of the test: Inhibition of ASK2 (unknown origin).

For test [6], the target named is T3, Mitogen-activated protein kinase kinase kinase 7 (Homo sapiens, UniProt O43318).
T3 sequence (O43318 whole entry): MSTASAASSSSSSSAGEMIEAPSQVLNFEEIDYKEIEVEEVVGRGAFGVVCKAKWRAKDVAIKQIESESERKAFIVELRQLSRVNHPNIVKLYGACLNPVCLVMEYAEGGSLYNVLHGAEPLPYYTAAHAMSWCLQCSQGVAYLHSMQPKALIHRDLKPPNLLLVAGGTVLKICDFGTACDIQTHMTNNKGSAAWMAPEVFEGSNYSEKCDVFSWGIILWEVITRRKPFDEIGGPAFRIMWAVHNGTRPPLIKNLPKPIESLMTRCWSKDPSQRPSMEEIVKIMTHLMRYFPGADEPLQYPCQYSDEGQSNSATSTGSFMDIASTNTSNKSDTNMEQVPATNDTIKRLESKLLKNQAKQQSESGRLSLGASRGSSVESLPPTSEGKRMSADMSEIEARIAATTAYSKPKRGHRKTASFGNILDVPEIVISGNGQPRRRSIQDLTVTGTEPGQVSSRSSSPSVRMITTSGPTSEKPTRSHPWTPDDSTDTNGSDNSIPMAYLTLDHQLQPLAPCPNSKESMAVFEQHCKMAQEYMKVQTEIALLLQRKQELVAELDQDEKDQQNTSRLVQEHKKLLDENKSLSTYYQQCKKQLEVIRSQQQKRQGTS
Description: Inhibition of TAK1 (unknown origin).

In the case of `CN[C@@H]1C[C@H]2O[C@@](C)([C@@H]1OC)n1c3ccccc3c3c4c(c5c6ccccc6n2c5c31)C(=O)NC4` [STAUROSPORINE], the IC50 in test [1] was determined as 60.1 nM.

For `Cc1cc(F)c(C(=O)Nc2cccc(-c3nncn3C(C)C)n2)cc1-n1cnc(C2CC2)c1`, the outcome in test [2] was Active. The result in test [3] was inactive.

`CC(C)n1cnnc1-c1cccc(NC(=O)Nc2ccc(-c3ccn(C)n3)cn2)n1`: the IC50 in test [4] turned out to be 64.2 nM; in test [5] it was 2780 nM; in test [6], 2220 nM.

For the origin of these results see ChEMBL document CHEMBL4680251, “Discovery of a 2-pyridinyl urea-containing compound YD57 as a potent inhibitor of apoptosis signal-regulating kinase 1 (ASK1)” (Eur J Med Chem, 2020).
